Assays:
Test in all cases: Test G pre/postemergence
Type in all cases: in vivo
Conditions in all cases: Preemergence
[1] = system: Canada horseweed (Conyza canadensis)
Outline: (§1)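 Pre- and postemergence greenhouse test; compound in non-phytotoxic solvent/surfactant mix. Post timing: 2–18 cm plants, 1- to 4-leaf. Visual rating vs controls at 12–21 d, 0 (no effect) to 100 (complete control).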

[2] = system: Surinam grass (Brachiaria decumbens)
Outline: as §1

[3] = system: bermudagrass (Cynodon dactylon)
Outline: as §1

[4] = system: common ragweed (Ambrosia elatior)
Outline: as §1

[5] = system: dallisgrass (Paspalum dilatatum)
Outline: as §1

[6] = system: guineagrass (Panicum maximum)
Outline: as §1

[7] = system: itchgrass (Rottboellia cochinchinensis)
Outline: as §1

[8] = system: Russian thistle (Salsola kali)
Outline: as §1

[9] = system: common groundsel (Senecio vulgaris)
Outline: as §1

[10] = system: common purslane (Portulaca oleracea)
Outline: as §1

COC(=O)c1nc(C2CC2)nc(N)c1Cl [Compound 9, methyl 6-amino-5-chloro-2-cyclopropyl-4-pyrimidinecarboxylate]
85: Plant response rating, Itchgrass ([7]; 500 g ai/ha, scale 0 to 100)
10: Plant response rating, Bermudagrass ([3]; 62 g ai/ha, scale 0-100) | Plant response rating, Dallisgrass ([5]; 62 g ai/ha, scale 0-100)
100: Plant response rating, Horseweed ([1]; 62 g ai/ha, scale 0-100) | Plant response rating, Horseweed ([1]; 125 g ai/ha, scale 0-100) | Plant response rating, Horseweed ([1]; 250 g ai/ha, scale 0-100) | Plant response rating, Horseweed ([1]; 500 g ai/ha, scale 0 to 100) | Plant response rating, Bermudagrass ([3]; 500 g ai/ha, scale 0 to 100) | Plant response rating, Ragweed ([4]; 125 g ai/ha, scale 0-100) | Plant response rating, Ragweed ([4]; 250 g ai/ha, scale 0-100) | Plant response rating, Ragweed ([4]; 500 g ai/ha, scale 0 to 100) | Plant response rating, Dallisgrass ([5]; 500 g ai/ha, scale 0 to 100) | Plant response rating, Guineagrass ([6]; 125 g ai/ha, scale 0-100) | Plant response rating, Guineagrass ([6]; 250 g ai/ha, scale 0-100) | Plant response rating, Guineagrass ([6]; 500 g ai/ha, scale 0 to 100)
30: Plant response rating, Itchgrass ([7]; 62 g ai/ha, scale 0-100)
95: Plant response rating, Bermudagrass ([3]; 125 g ai/ha, scale 0-100) | Plant response rating, Bermudagrass ([3]; 250 g ai/ha, scale 0-100) | Plant response rating, Ragweed ([4]; 62 g ai/ha, scale 0-100)
60: Plant response rating, Itchgrass ([7]; 125 g ai/ha, scale 0-100)
70: Plant response rating, Surinam Grass ([2]; 125 g ai/ha, scale 0-100) | Plant response rating, Dallisgrass ([5]; 125 g ai/ha, scale 0-100)
40: Plant response rating, Surinam Grass ([2]; 62 g ai/ha, scale 0-100)
90: Plant response rating, Surinam Grass ([2]; 500 g ai/ha, scale 0 to 100) | Plant response rating, Guineagrass ([6]; 62 g ai/ha, scale 0-100)
80: Plant response rating, Surinam Grass ([2]; 250 g ai/ha, scale 0-100) | Plant response rating, Dallisgrass ([5]; 250 g ai/ha, scale 0-100) | Plant response rating, Itchgrass ([7]; 250 g ai/ha, scale 0-100)

CCOC(=O)c1nc(C2CC2)nc(N)c1Cl [Compound 4, ethyl 6-amino-5-chloro-2-cyclopropyl-4-pyrimidinecarboxylate]
70: Plant response rating, Itchgrass ([7]; 62 g ai/ha, scale 0-100) | Plant response rating, Itchgrass ([7]; 125 g ai/ha, scale 0-100)
30: Plant response rating, Surinam Grass ([2]; 62 g ai/ha, scale 0-100)
50: Plant response rating, Dallisgrass ([5]; 125 g ai/ha, scale 0-100)
90: Plant response rating, Bermudagrass ([3]; 125 g ai/ha, scale 0-100)
60: Plant response rating, Surinam Grass ([2]; 125 g ai/ha, scale 0-100) | Plant response rating, Purslane ([10]; 62 g ai/ha, scale 0-100)
80: Plant response rating, Surinam Grass ([2]; 250 g ai/ha, scale 0-100) | Plant response rating, Ragweed ([4]; 62 g ai/ha, scale 0-100) | Plant response rating, Itchgrass ([7]; 250 g ai/ha, scale 0-100)
20: Plant response rating, Bermudagrass ([3]; 62 g ai/ha, scale 0-100)
100: Plant response rating, Horseweed ([1]; 62 g ai/ha, scale 0-100) | Plant response rating, Horseweed ([1]; 125 g ai/ha, scale 0-100) | Plant response rating, Horseweed ([1]; 250 g ai/ha, scale 0-100) | Plant response rating, Horseweed ([1]; 500 g ai/ha, scale 0 to 100) | Plant response rating, Russian Thistle ([8]; 125 g ai/ha, scale 0-100) | Plant response rating, Russian Thistle ([8]; 250 g ai/ha, scale 0-100) | Plant response rating, Russian Thistle ([8]; 500 g ai/ha, scale 0 to 100) | Plant response rating, Bermudagrass ([3]; 500 g ai/ha, scale 0 to 100) | Plant response rating, Groundsel ([9]; 250 g ai/ha, scale 0-100) | Plant response rating, Groundsel ([9]; 500 g ai/ha, scale 0 to 100) | Plant response rating, Purslane ([10]; 125 g ai/ha, scale 0-100) | Plant response rating, Purslane ([10]; 250 g ai/ha, scale 0-100) | Plant response rating, Purslane ([10]; 500 g ai/ha, scale 0 to 100) | Plant response rating, Ragweed ([4]; 125 g ai/ha, scale 0-100) | Plant response rating, Ragweed ([4]; 250 g ai/ha, scale 0-100) | Plant response rating, Ragweed ([4]; 500 g ai/ha, scale 0 to 100) | Plant response rating, Dallisgrass ([5]; 500 g ai/ha, scale 0 to 100) | Plant response rating, Guineagrass ([6]; 250 g ai/ha, scale 0-100) | Plant response rating, Guineagrass ([6]; 500 g ai/ha, scale 0 to 100)
0: Plant response rating, Dallisgrass ([5]; 62 g ai/ha, scale 0-100)
95: Plant response rating, Surinam Grass ([2]; 500 g ai/ha, scale 0 to 100) | Plant response rating, Bermudagrass ([3]; 250 g ai/ha, scale 0-100) | Plant response rating, Groundsel ([9]; 62 g ai/ha, scale 0-100) | Plant response rating, Groundsel ([9]; 125 g ai/ha, scale 0-100) | Plant response rating, Dallisgrass ([5]; 250 g ai/ha, scale 0-100) | Plant response rating, Guineagrass ([6]; 62 g ai/ha, scale 0-100) | Plant response rating, Guineagrass ([6]; 125 g ai/ha, scale 0-100) | Plant response rating, Itchgrass ([7]; 500 g ai/ha, scale 0 to 100)
